Experimental data reported in ChEMBL document CHEMBL1150224, “Antioxidant benzoylated flavan-3-ol glycoside from Celastrus orbiculatus” (J Nat Prod, 2001).
≈ marks a conversion by molar mass, not a printed value.

Tested on: Radical scavenging activity
Assay: Antioxidant activity assessed as DPPH radical scavenging activity
Assay type: functional

Row | Compound | IC50
1 | O=C(O[C@@H]1Cc2c(O)cc(O)cc2O[C@@H]1c1cc(O)c(O)c(O)c1)c1cc(O)c(O)c(O)c1 [EPIGALOCATECHIN GALLATE] | 5.6 µg/mL (≈ 12.2 µM)
2 | COc1ccc(O)c(C(C)(C)C)c1.COc1ccc(O)cc1C(C)(C)C [BUTYLATED HYDROXYANISOLE] | 4.5 µg/mL
3 | O=C(O[C@@H]1Cc2c(O[C@@H]3O[C@H](CO)[C@@H](O)[C@H](O)[C@H]3O)cc(O)cc2O[C@@H]1c1ccc(O)c(O)c1)c1ccccc1 | 25 µg/mL (≈ 44.9 µM)

The next lines start with the values.

Row | IC50 | Compound
4 | 7.5 µg/mL (≈ 27.3 µM) | Oc1ccc([C@H]2Oc3cc(O)cc(O)c3C[C@H]2O)cc1 [EPIAFZELECHIN (2R,3R)(-)]
5 | 6.2 µg/mL | VITAMIN E
6 | 8.5 µg/mL (≈ 29.3 µM) | Oc1cc(O)c2c(c1)O[C@H](c1ccc(O)c(O)c1)[C@H](O)C2 [(-)-EPICATECHIN]
7 | 17 µg/mL (≈ 43.1 µM) | O=C(O[C@@H]1Cc2c(O)cc(O)cc2O[C@@H]1c1ccc(O)c(O)c1)c1ccccc1
